Like-named read-outs stand apart in the source and are kept apart here.

The CC50 is the concentration at which the toxic effect on the cells reaches its halfway point. For orientation: EC50 means the concentration at which the effect is half-maximal.

Data set [1] is described as follows: MT-4 proliferation assay in 384-well format (Cell Titer Glo). It is filed as cell-based, human. The following applies: human, MT-4 cells, Table 2, 50% decrease in luminescence signal, read-out: CC50 MT4 384. Here is the method:
Compounds were tested in a standardized high-throughput 384-well assay format. Each compound was serially diluted 3-fold in 100% DMSO in polypropylene 384-well plates using a Biomek FX Workstation, and 0.4 μL compound added to an assay plate containing 40 μL RPMI media. Compounds were arranged in a horizontal pattern, with 10 concentrations per compound, and 8 compounds added per plate. Due to low DMSO tolerability, the final DMSO concentration never exceeded 0.5% (v/v). Each assay plate contained 10 μM Puromycin and 0.5% DMSO in RPMI-1640 as positive and negative controls respectively. MT-4 cells (HTLV-1 transformed, human T lymphoblastoid cells, NIH Aids Reagent program) were added in volumes of 35 μL per well and 2,000 cells per well using a Biotek uFlow Workstation (Biotek, Winooski, Vt.), and the plates subsequently incubated for 5 days at 37° C. in an incubator set at 5% CO2 and 90% humidity.
After 5 days, 22 μL Cell Titer Glo (Promega) was added to the assay plates with a Biotek uFlow Workstation. Plates were subsequently placed on a Perkin Elmer Envision Plate Reader for 5 minutes before the luminescence signal was read. CC50 values were calculated from the compound concentration that caused a 50% decrease in luminescence signal, a measure of toxicity, and calculated by non-linear regression using Pipeline Pilot software (Accelrys, San Diego, Calif.).

For data set [2], the system named is c-Myc produced in MM1S cells. In words: c-Myc down regulation assay (MSD ELISA) in MM1S cells. It is filed as cell-based. The following applies: Homo sapiens, MM1.S, 24 hrs incubation, geometric mean, read-out: cMYC EC50. Here is the method: An enzyme linked immunosorbent assay using the Meso Scale Diagnostic (MSD) technology was used to detect levels of c-Myc produced in MM1S cells (ATCC). MM1S cells were cultured in RPMI-1640 media (Corning), supplemented with 10% FBS (Hyclone), 1% penicillin-streptomycin (Cellgro), 2-mercaptoethanol (Gibco) and seeded onto 384-tissue culture treated filter binding plates (Millipore) at a density of 40K cells/well containing titrations of small molecule inhibitors or DMSO (0.4%) in a volume of 100 μl of media. After an incubation time of 24 hrs, cells were lysed (1× lysis buffer (Thermo) supplemented with protease and phosphatase inhibitor cocktail (Thermo)) and the plates centrifuged (1000 rpm, 1 min) to capture c-Myc on MSD plates coated with a monoclonal c-Myc antibody (Origene). Assay wells were washed (3× Invitrogen wash buffer) and probed with a polyclonal c-Myc antibody (Abcam) and MSD detection antibody solution in order to detect levels of c-Myc on the MSD platform. c-Myc capture was reported in pg/ml based on a standard curve using recombinant c-Myc protein (Prosci). EC50 values were calculated from the fit of the dose-response curves to a four-parameter equation. All EC50 values represent geometric mean values of a minimum of four determinations. These assays generally produced results within 3-fold of the reported mean.

Data set [3] addresses T1, BRD4-2 (Homo sapiens, UniProt O60885).
T1 construct: made in house; host or cells: Escherichia coli
Put plainly: BRD4-2 Ligand KI assay (TR-FRET displacement of Cy5 labeled probe). It is filed as binding. Here is the method: (§1) BRD4-I and BRD4-2 were expressed and purified from Escherichia coli as N-terminal His6-tagged proteins. A Eu-cryptate labeled anti-His antibody (Perkin Elmer) was used to specifically bind BRD4. […] Assays were performed in 50 mM Hepes (pH 7.5), 150 mM NaCl, 0.1 mg/ml BSA, 0.01% (v/v) Brij, 0.5% (v/v) DMSO and 10 nM labeled ligand at the following concentrations for each BRD4 isoform: 2 nM BRD4-1 and 0.5 nM BRD4-2. After an assay reaction time of 60 minutes at 25° C., binding was measured with 2 nM Eu-cryptate labeled anti-His antibody. TR-FRET signal was detected on an Envision plate reader (Ex: 320 nm; Em: 615/665 nm; 100 μs delay and 200 μs read window). Data were normalized based on a positive (2 μM I-BET) and negative (DMSO) controls and IC50 values were calculated from the fit of the dose-response curves to a four-parameter equation. All IC50 values represent geometric mean values of a minimum of four determinations. The IC50 values were converted to Ki values (dissociation constant for BRD4-inhibitor complex) using the Cheng and Prusoff equation for a competitive inhibitor mode of action.
For orientation: Time-resolved FRET reads energy transfer from a long-lived donor to a nearby acceptor.

For data set [4], the target named is T2, BRD4-1 (Homo sapiens, UniProt O60885).
T2 construct: made in house; host or cells: Escherichia coli
Put plainly: BRD4-1 Ligand KI assay (TR-FRET displacement of Cy5 labeled probe). It is filed as binding. Here is the method:
Binding of the two tandem bromodomains, BRD4-I and BRD4-2, to a Cy5 labeled probe/ligand (Compound 201-A) were measured using a homogeneous time resolved fluorescence resonance energy transfer (TR-FRET) assay.
as §1, with “The labeled ligand specifically binds BRD4-1 and BRD4-2 and can be displaced by a small molecule inhibitor that shares a similar or overlapping binding site. BRD4-I” for “BRD4-I”, “action. These assays generally produced results within 3-fold of the reported mean.” for “action.”

Setting [5] is: 10 nM labeled ligand, 0.5 nM BRD4-2, Ki from IC50 by Cheng and Prusoff, read-out: BRD4-2 Ligand K2.
The mark [6] stands for this setting: 10 nM labeled ligand, 2 nM BRD4-1, Ki from IC50 by Cheng and Prusoff, read-out: BRD4-1 Ligand K1.

Consider `Cc1noc(C)c1-c1cc(C(O)(c2ccccn2)c2ccccn2)c2[nH]c(=O)[nH]c2c1` [Example 133, 6-(3,5-dimethylisoxazol-4-yl)-4-(hydroxydi(pyridin-2-yl)methyl)-1H-benzo[d]imidazol-2(3H)-one], for which the CC50 at 5 days in data set [1] came out at 0.0255 µM. Also, the EC50 in data set [2] is 0.0443 µM. Moreover, the values for the Ki in data set [3] and in data set [4] were 0.0158 µM and 0.0403 µM, respectively.

Consider `Cc1cccc(C(O)(c2cccc(C)n2)c2cc(-c3c(C)noc3C)cc3[nH]c(=O)[nH]c23)n1` [Example 134], for which, in data set [1], the half-maximal cytotoxic concentration (CC50) at 5 days is 0.0191 µM. Further, in data set [2], the EC50 was found to be 0.0744 µM. Moreover, the Ki in data set [3] (setting [5]) worked out at 0.0053 µM; in data set [4] (setting [6]), 0.0699 µM.

With `Cc1noc(C)c1-c1cc(C(O)(CCC(F)(F)F)c2ccccn2)c2[nH]c(=O)[nH]c2c1` (stereo not shown) [Example 140, 6-(3,5-dimethylisoxazol-4-yl)-4-(4,4,4-trifluoro-1-hydroxy-1-(pyridin-2-yl)butyl)-1H-benzo[d]imidazol-2(3H)-one], in data set [1], the cytotoxic concentration (CC50) at 5 days was found to be 0.0783 µM. In addition, the EC50 in data set [2] was determined as 0.217 µM. For the same compound, the results for the Ki in data set [3] (setting [5]) and in data set [4] (setting [6]) were 0.0438 µM and 0.0352 µM, respectively.

Regarding `Cc1noc(C)c1-c1cc(C(O)(CC(C)(C)C)c2ccccn2)c2[nH]c(=O)[nH]c2c1` (stereo not shown) [Example 143, 6-(3,5-dimethylisoxazol-4-yl)-4-(1-hydroxy-3,3-dimethyl-1-(pyridin-2-yl)butyl)-1H-benzo[d]imidazol-2(3H)-one], the cytotoxic concentration (CC50) at 5 days in data set [1] stood at 0.0204 µM. Moreover, the EC50 in data set [2] came to 0.118 µM. The results for the Ki in data set [3] (setting [5]) and in data set [4] (setting [6]) were 0.008 µM and 0.0293 µM, respectively.

`Cc1cccc(C(O)(c2ccccn2)c2cc(-c3c(C)noc3C)cc3[nH]c(=O)[nH]c23)n1` (stereo not shown) [Example 147, 6-(3,5-dimethylisoxazol-4-yl)-4-(hydroxy(6-methylpyridin-2-yl)(pyridin-2-yl)methyl)-1H-benzo[d]imidazol-2(3H)-one]: the CC50 at 5 days in data set [1] came to 0.0565 µM. Further, the EC50 in data set [2] stood at 0.107 µM. Also, the Ki was 0.016 µM in data set [3] (setting [5]) and 0.0816 µM in data set [4] (setting [6]).

As for `Cc1noc(C)c1-c1cc(C(O)(c2ccccc2)c2ccccn2)c2[nH]c(=O)[nH]c2c1` (stereo not shown) [Example 149, 6-(3,5-dimethylisoxazol-4-yl)-4-(hydroxy(phenyl)(pyridin-2-yl)methyl)-H benzo[d]imidazol-2(3H)-one], in data set [1], the CC50 at 5 days amounted to 0.0175 µM. Also, in data set [2], the 50% effective concentration (EC50) worked out at 0.0738 µM. The values for the Ki in data set [3] (setting [5]) and in data set [4] (setting [6]) were 0.0046 µM and 0.0173 µM, respectively.

Take `Cc1noc(C)c1-c1cc(C(O)(c2ccccn2)c2ccccn2)c2[nH]c(=O)[nH]c2c1F` [Example 169]: the CC50 at 5 days in data set [1] is 0.0414 µM. Further, the EC50 in data set [2] came to 0.128 µM. The Ki was 0.0335 µM in data set [3] (setting [5]) and 0.062 µM in data set [4] (setting [6]).

These data come from patent publication US20160031868A1, “BENZIMIDAZOLONE DERIVATIVES AS BROMODOMAIN INHIBITORS” (GILEAD SCIENCES, INC., priority 2013, published 2016).
